23 molecules from patent publication US10758534B2 (Vertex Pharmaceuticals Incorporated, priority 2014, dated 2020) can be followed below.

One may read the EC30 as the concentration at which the effect reaches the 30% level.

The target of one assay is T1, F508del (Homo sapiens, UniProt P13569, DEL508-508).
T1 construct: expressed in transfected cells
T1 sequence (P13569 with tags, fused parts or gaps DEL508-508): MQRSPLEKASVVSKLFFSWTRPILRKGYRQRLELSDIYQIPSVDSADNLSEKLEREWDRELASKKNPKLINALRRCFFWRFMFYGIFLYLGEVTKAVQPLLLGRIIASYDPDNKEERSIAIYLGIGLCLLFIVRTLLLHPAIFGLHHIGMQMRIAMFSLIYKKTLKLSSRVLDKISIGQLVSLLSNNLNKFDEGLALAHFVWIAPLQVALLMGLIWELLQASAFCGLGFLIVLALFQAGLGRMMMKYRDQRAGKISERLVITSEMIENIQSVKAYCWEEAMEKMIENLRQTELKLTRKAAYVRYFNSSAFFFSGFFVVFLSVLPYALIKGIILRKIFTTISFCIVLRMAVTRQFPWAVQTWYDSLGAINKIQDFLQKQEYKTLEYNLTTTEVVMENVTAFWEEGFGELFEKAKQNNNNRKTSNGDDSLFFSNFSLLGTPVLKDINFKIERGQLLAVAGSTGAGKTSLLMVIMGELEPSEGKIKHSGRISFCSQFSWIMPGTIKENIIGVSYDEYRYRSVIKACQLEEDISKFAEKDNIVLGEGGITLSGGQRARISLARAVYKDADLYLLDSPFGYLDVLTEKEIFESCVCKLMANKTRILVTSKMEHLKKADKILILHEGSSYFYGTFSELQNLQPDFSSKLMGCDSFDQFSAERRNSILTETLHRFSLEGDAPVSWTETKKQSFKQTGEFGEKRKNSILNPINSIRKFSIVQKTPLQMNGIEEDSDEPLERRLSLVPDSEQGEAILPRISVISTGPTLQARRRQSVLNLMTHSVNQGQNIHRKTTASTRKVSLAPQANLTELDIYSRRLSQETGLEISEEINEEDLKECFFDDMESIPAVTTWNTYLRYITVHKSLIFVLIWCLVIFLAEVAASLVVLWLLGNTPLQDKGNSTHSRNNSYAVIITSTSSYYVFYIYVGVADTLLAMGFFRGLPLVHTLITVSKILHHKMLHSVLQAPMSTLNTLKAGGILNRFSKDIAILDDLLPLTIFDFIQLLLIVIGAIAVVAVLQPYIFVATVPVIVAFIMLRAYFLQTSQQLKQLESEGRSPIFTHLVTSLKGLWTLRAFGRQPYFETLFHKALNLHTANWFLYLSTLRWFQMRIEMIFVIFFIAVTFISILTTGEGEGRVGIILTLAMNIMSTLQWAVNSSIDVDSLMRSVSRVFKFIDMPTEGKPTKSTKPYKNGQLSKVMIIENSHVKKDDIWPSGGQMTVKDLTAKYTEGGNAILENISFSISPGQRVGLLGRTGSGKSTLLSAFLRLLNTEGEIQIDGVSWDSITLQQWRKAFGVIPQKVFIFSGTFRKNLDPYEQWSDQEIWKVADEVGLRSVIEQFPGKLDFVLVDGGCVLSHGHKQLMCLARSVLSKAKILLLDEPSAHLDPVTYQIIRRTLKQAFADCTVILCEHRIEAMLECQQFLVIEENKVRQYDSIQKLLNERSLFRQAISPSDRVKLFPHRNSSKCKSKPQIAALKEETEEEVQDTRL
Description: Protocol 2: FRET membrane potential optical assay (VIPR), identification of correction compounds. The format is cell-based. As to conditions: F508del CFTR modulator activity; compounds of Table 1; read-out: EC30. The procedure, abridged:
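Single-addition HTS format: F508del-expressing NIH3T3 cells pre-incubated 16 hrs at 37° C. ± compound, with 27° C. culture as positive control. Channel activation by forskolin 10 μM and genistein 20 μM upon switch to gluconate bath, pH 7.4; read-out is FRET-based depolarization signal.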
`Cc1cc(-c2ccc(C(=O)NS(=O)(=O)c3ccc[nH]c3=O)c(N3C[C@@H](C)CC3(C)C)n2)cc(C)c1O` [Compound 2556, 6-(4-hydroxy-3,5-dimethyl-phenyl)-N-[(2-oxo-1H-pyridin-3-yl)sulfonyl]-2-[(4S)-2,2,4-trimethylpyrrolidin-1-yl]pyridine-3-carboxamide]: the 30% effect concentration (EC30) lay within 3000 to 10000 nM.

As for `CC(C)Oc1ccn(-c2ccc(C(=O)NS(=O)(=O)c3ccc[nH]c3=O)c(N3C[C@@H](C)CC3(C)C)n2)n1` [Compound 2360, 6-(3-isopropoxypyrazol-1-yl)-N-[(2-oxo-1H-pyridin-3-yl)sulfonyl]-2-[(4S)-2,2,4-trimethylpyrrolidin-1-yl]pyridine-3-carboxamide], the EC30 was in the range of 3000 to 10000 nM. As for `CC1CN(c2ncccc2C(=O)NS(=O)(=O)c2cccc(Oc3cc(F)cc(Cl)c3)n2)C(C)(C)C1` (centres unmarked) [Compound 2719], the 30% effect concentration (EC30) is < 3000 nM.

On to `CC1CN(c2ncccc2C(=O)NS(=O)(=O)c2cccc(Oc3ccc4c(c3)CCC4=O)n2)C(C)(C)C1` (centres unmarked) [Compound 2733], for which the concentration for an effect of 30% (EC30) was 3000 to 10000 nM. Turning to `COc1ccc(C)cc1-c1ccc(C(=O)NS(=O)(=O)c2cccnc2N)c(N2C[C@@H](C)CC2(C)C)n1` [Compound 2413, N-[(2-amino-3-pyridyl)sulfonyl]-6-(2-methoxy-5-methyl-phenyl)-2-[(4S)-2,2,4-trimethylpyrrolidin-1-yl]pyridine-3-carboxamide], the concentration for an effect of 30% (EC30) is < 3000 nM. The same measure, in the same setting: with `CCOCCOc1ncc(-c2ccc(C(=O)NS(=O)(=O)c3cccnc3N)c(N3C[C@@H](C)CC3(C)C)n2)cc1C` [Compound 2497, N-[(2-amino-3-pyridyl)sulfonyl]-6-[6-(2-ethoxyethoxy)-5-methyl-3-pyridyl]-2-[(4S)-2,2,4-trimethylpyrrolidin-1-yl]pyridine-3-carboxamide] the figure was < 3000 nM; with `CC1CN(c2nc(OC(C)C3CC3)c(F)cc2C(=O)NS(=O)(=O)c2cccc(N)n2)C(C)(C)C1` (centres unmarked) [Compound 2373, N-[(6-amino-2-pyridyl)sulfonyl]-6-(1-cyclopropylethoxy)-5-fluoro-2-(2,2,4-trimethylpyrrolidin-1-yl)pyridine-3-carboxamide], < 3000 nM; with `CC1CN(c2ncccc2C(=O)NS(=O)(=O)c2cccc(N3CCCC3)n2)C(C)(C)C1` (centres unmarked) [Compound 2561, N-[(6-pyrrolidin-1-yl-2-pyridyl)sulfonyl]-2-(2,2,4-trimethylpyrrolidin-1-yl)pyridine-3-carboxamide], < 3000 nM. For `C[C@@H]1CN(c2nc(-c3ccc(F)cc3F)ccc2C(=O)NS(=O)(=O)c2ccc[nH]c2=O)C(C)(C)C1` [Compound 2159, 6-(2,4-difluorophenyl)-N-[(2-oxo-1H-pyridin-3-yl)sulfonyl]-2-[(4S)-2,2,4-trimethylpyrrolidin-1-yl]pyridine-3-carboxamide], the EC30 was < 3000 nM.

For the molecule `Cc1cc(C)nc(Nc2cccc(S(=O)(=O)NC(=O)c3cccnc3N3CC(C)CC3(C)C)n2)c1` (centres unmarked) [Compound 2160, N—[[6-[(4,6-dimethyl-2-pyridyl)amino]-2-pyridyl]sulfonyl]-2-(2,2,4-trimethylpyrrolidin-1-yl)pyridine-3-carboxamide], the EC30 was in the range of 3000 to 10000 nM. For the molecule `C[C@@H]1CN(c2nc(-c3ccc4ccn(C)c4c3)ccc2C(=O)NS(=O)(=O)c2cccnc2N)C(C)(C)C1` [Compound 2401, N-[(2-amino-3-pyridyl)sulfonyl]-6-(I-methylindol-6-yl)-2-[(4S)-2,2,4-trimethylpyrrolidin-1-yl]pyridine-3-carboxamide], the EC30 is < 3000 nM.

Staying with this assay, now noted: Table 3; compounds of Table 1 as modulators of CFTR activity; protocol not stated.
For `CC(C)COc1cc(F)cc(-c2ccc(C(=O)NS(=O)(=O)c3cccc(N)n3)c(OC3CCOC3)n2)c1` (centres unmarked) [Compound 433, N-[(6-amino-2-pyridyl)sulfonyl]-6-(3-fluoro-5-isobutoxy-phenyl)-2-tetrahydrofuran-3-yloxy-pyridine-3-carboxamide], the EC30 result is “+++ (“+++” means <3 uM)”.

`Cc1cc(C)c(Cn2nc(C(C)(C)C)nc2C(=O)NS(=O)(=O)c2cccc(N)c2)c(C)c1` [Compound 261, N-(3-aminophenyl)sulfonyl-5-tert-butyl-2-[(2,4,6-trimethylphenyl)methyl]-1,2,4-triazole-3-carboxamide]: the EC30 result is “+++ (“+++” means <3 uM)”. Consider `Cc1cc(C)c(CN2Cc3ccccc3C2(C)C(=O)NS(=O)(=O)c2ncccc2O)c(C)c1` (centres unmarked) [Compound 377, N-[(3-hydroxy-2-pyridyl)sulfonyl]-1-methyl-2-[(2,4,6-trimethylphenyl)methyl]isoindoline-1-carboxamide], for which the EC30 entry is recorded as “+++ (“+++” means <3 uM)”. With `CCc1ccc2c(c1)cc(C(=O)NS(=O)(=O)c1cccc(N)n1)n2Cc1c(C)cc(C)cc1C` [Compound 179, N-[(6-amino-2-pyridyl)sulfonyl]-5-ethyl-1-[(2,4,6-trimethylphenyl)methyl]indole-2-carboxamide], the EC30 result is on record as “+++ (“+++” means <3 uM)”. In the case of `CC(C)(C)c1ccc(C(=O)NS(=O)(=O)c2cccc(N)c2)c(-c2ccc(F)cc2)n1` [Compound 46, N-(3-aminophenyl)sulfonyl-6-tert-butyl-2-(4-fluorophenyl)pyridine-3-carboxamide], the concentration for an effect of 30% (EC30) result is “++ (“++” means between 3 uM and 10 uM)”. Regarding `Cc1cc(C)c(Oc2nc(-c3ccc(F)cc3)ccc2C(=O)NS(=O)(=O)c2ccc[nH]c2=O)c(C)c1` [Compound 561, 6-(4-fluorophenyl)-N-[(2-oxo-1H-pyridin-3-yl)sulfonyl]-2-(2,4,6-trimethylphenoxy)pyridine-3-carboxamide], the 30% effect concentration (EC30) result is reported as “+++ (“+++” means <3 uM)”. On the same count and under the same terms, with `Cc1cc(C)c(Cn2c(C(=O)NS(=O)(=O)c3ccncc3)cc3cc(Cl)ccc32)c(C)c1` [Compound 65, 5-chloro-N-(4-pyridylsulfonyl)-1-[(2,4,6-trimethylphenyl)methyl]indole-2-carboxamide] the entry was “++ (“++” means between 3 uM and 10 uM)”. Consider `Cc1cccc(S(=O)(=O)NC(=O)c2cc(C(C)(C)C)nn2Cc2c(C)cc(C)cc2C)c1` [Compound 80, 5-tert-butyl-N-(m-tolylsulfonyl)-2-[(2,4,6-trimethylphenyl)methyl]pyrazole-3-carboxamide], for which the 30% effect concentration (EC30) result is on record as “+++ (“+++” means <3 uM)”. For the molecule `CC(C)Oc1ccc(-c2ccc(C(=O)NS(=O)(=O)c3cccc(N)n3)c(N3CCCC(c4ccccc4)C3)n2)cn1` (centres unmarked) [Compound 233, N-[(6-amino-2-pyridyl)sulfonyl]-6-(6-isopropoxy-3-pyridyl)-2-[-3-phenyl-1-piperidyl]pyridine-3-carboxamide], the EC30 result is on record as “+++ (“+++” means <3 uM)”. Same read-out and setting: with `Cc1cc(C)c(Cn2cc(C(C)(C)C)nc2C(=O)NS(=O)(=O)c2cccc(N)c2)c(C)c1` [Compound 255, N-(3-aminophenyl)sulfonyl-4-tert-butyl-1-[(2,4,6-trimethylphenyl)methyl]imidazole-2-carboxamide] the entry was “+++ (“+++” means <3 uM)”. On to `Cc1cc(C)c(Oc2nc(N3CCCCC3)ccc2C(=O)NS(=O)(=O)c2cccc(N)n2)c(C)c1` [Compound 785, N-[(6-amino-2-pyridyl)sulfonyl]-6-(1-piperidyl)-2-(2,4,6-trimethylphenoxy)pyridine-3-carboxamide], for which the EC30 entry is given as “+++ (“+++” means <3 uM)”. For the molecule `CC(C)COc1cc(F)cc(-c2ccc(C(=O)NS(=O)(=O)c3cccc(N)n3)c(N3CCC[C@@H](C)C3)n2)c1` [Compound 408, N-[(6-amino-2-pyridyl)sulfonyl]-6-(3-fluoro-5-isobutoxy-phenyl)-2-[(3R)-3-methyl-1-piperidyl]pyridine-3-carboxamide], the EC30 entry is on record as “+++ (“+++” means <3 uM)”.
